# According to patent US20250170132A1, “SALTS AND POLYMORPHIC FORMS OF MENIN INHIBITORS AND PHARMACEUTICAL COMPOSITIONS THEREOF” (Syndax Pharmaceuticals, Inc., priority 2023, published 2025):
# What was measured:
# Format in all cases: physicochemical
# [1] = Approximate solubility estimation in 24 solvents; settings: thermodynamic from solid
# Experimental: About 10 mg of Compound A monocitrate monohydrate was weighed into a 4.0 mL vial and 25 μL of solvent was added at RT. The solution was shaken and stirred. If no clear solution was obtained, another 25 μL was added and this was repeated until 4.0 mL solvent is added.
# [2] = Polymorph screen: anti-solvent addition
# Experimental: (§1) X-ray powder diffraction (XRPD) • Instrument: Panalytical Empyrean • Parameters: X-Ray tube Cu (Kα radiation); Power: 45 kV×40 mA • Scanning range: 2 to 40 2θ (degree) • Step size: 0.01 degree • Scanning speed: 6.33 degree (20) per minute Thermogravimetric analysis (TGA) • Instrument: TA Instruments Discovery TGA • Parameters: Ramp 10° C. per minute, 25 to 300° C., 50 mL/min N2 sweep Differential scanning calorimetry (DSC) • Instrument: TA Instruments Discovery DSC • Parameters: Ramp 10° C. per minute, up to 300° C. Polarized light microscopy (PLM) • Instrument: Nikon Eclipse Ci POL • Camera: Nikon DS-Fi3 • Software: Nikon NIS Elements
# Experiments using 10 different techniques including using techniques such as anti-solvent addition, solid vapor diffusion, liquid vapor diffusion, slurry (at RT and 50° C.), slow evaporation, polymer induced crystallization, thermal cycling, sonication, and wet grinding.
# Obtained solids were tested by XRPD (Table 30).
# [3] = Polymorph screen: solid vapor diffusion
# Experimental: as §1
# Solid vapor diffusion—About 30 mg API was transferred into 4 mL vials which are placed in 20 mL glass vials containing different solvents. The solids were tested by XRPD after 7-10 days (Table 31).
# [4] = Polymorph screen: liquid vapor diffusion
# Experimental: as §1
# The obtained solids were characterized by XRPD after 7-10 days (Table 32).
# [5] = Polymorph screen: slurry at RT
# Experimental: as §1
# Slurry at RT—About 40 mg API was suspended and stirred in different solvents in 4 mL vials at RT. The solids in the slurry were characterized by XRPD after 5-7 days (Table 33).
# [6] = Polymorph screen: slow evaporation; settings: Diethylamine, 50° C.
# Experimental: as §1
# The vials were covered with paraffin film with 3-5 holes and placed at specified temperature for evaporation. The obtained solids were characterized by XRPD (Table 35).
# [7] = Polymorph screen: polymer-induced crystallization
# Experimental: as §1
# The obtained solids were characterized by XRPD after 7-10 days (Table 36).
# [8] = Polymorph screen: temperature cycling; settings: temperature cycling 50→40→30→20→5 °C, total 2 cycles, each step 4 h, isolated at RT, XRPD
# Experimental: as §1
# The obtained solids were characterized by XRPD (Table 37).
# [9] = Polymorph screen: sonication induced crystallization
# Experimental: as §1
# Sonication induced crystallization—About 40 mg API was suspended and sonicated in different solvents in 4 mL vials at RT. The solids in the slurry were characterized by XRPD after 1-day (Table 38).
# [10] = Polymorph screen: solvent drop grinding; settings: XRPD
# Experimental: as §1
# Solvent drop grinding—About 30 mg API was ground with different solvents. The obtained solids were characterized by XRPD (Table 39).
smiles,measurement,setting,value
CCN(C(=O)c1cc(F)ccc1Oc1cncnc1N1CC2(CCN(C[C@H]3CC[C@H](NS(=O)(=O)CC)CC3)CC2)C1)C(C)C [Compound A monocitrate monohydrate],solubility,"[1]; aqueous with cosolvent or surfactant or cyclodextrin, 1,4-dioxane/water (7/3), heated for few seconds using heat gun",84 to 105 mg/mL
same,solubility,"[1]; aqueous with cosolvent or surfactant or cyclodextrin, 1-PrOH/water (1/1), heated for few seconds using heat gun",161 to 242 mg/mL
same,solubility,"[1]; aqueous with cosolvent or surfactant or cyclodextrin, Acetone/H2O (9:1 v/v), RT",15 to 17.5 mg/mL
same,solubility,"[1]; aqueous with cosolvent or surfactant or cyclodextrin, MeOH/water (7/3), heated for few seconds using heat gun",93 to 186 mg/mL
same,solubility,"[1]; aqueous with cosolvent or surfactant or cyclodextrin, THF/water (1/1), heated for few seconds using heat gun",141 to 212 mg/mL
same,solubility,"[1]; organic solvent or mixture, 2-MeTHF, RT",< 2.9 mg/mL
same,solubility,"[1]; organic solvent or mixture, Anisole, RT",< 3 mg/mL
same,solubility,"[1]; organic solvent or mixture, Benzene, RT",< 2.9 mg/mL
same,solubility,"[1]; organic solvent or mixture, CPME, RT",< 2.1 mg/mL
same,solubility,"[1]; organic solvent or mixture, Chloroform, RT",< 2.3 mg/mL
same,solubility,"[1]; organic solvent or mixture, Cyclohexane, RT",< 2.3 mg/mL
same,solubility,"[1]; organic solvent or mixture, DMA, RT",81 to 162 mg/mL
same,solubility,"[1]; organic solvent or mixture, DMF, RT",80 to 160 mg/mL
same,solubility,"[1]; organic solvent or mixture, Diethylamine, RT",170 to 340 mg/mL
same,solubility,"[1]; organic solvent or mixture, Diisopropyl ether, RT",< 2.3 mg/mL
same,solubility,"[1]; organic solvent or mixture, Dimethoxyethane (DME), RT",< 2.4 mg/mL
same,solubility,"[1]; organic solvent or mixture, EtOAc, RT",< 2.3 mg/mL
same,solubility,"[1]; organic solvent or mixture, Heptane, RT",< 2.8 mg/mL
same,solubility,"[1]; organic solvent or mixture, IPA, RT",< 2.8 mg/mL
same,solubility,"[1]; organic solvent or mixture, MEK, RT",< 2.4 mg/mL
same,solubility,"[1]; organic solvent or mixture, MTBE, RT",< 2.8 mg/mL
same,solubility,"[1]; organic solvent or mixture, NMP, RT",120 to 240 mg/mL
same,solubility,"[1]; organic solvent or mixture, Propylene glycol, heated for few seconds using heat gun",22.2 to 27.8 mg/mL
same,solubility,"[1]; organic solvent or mixture, THF, RT",< 2 mg/mL
same,Crystal Form,"[2]; solvent DMA, antisolvent CPME",Form A
same,Crystal Form,"[2]; solvent DMA, antisolvent EtOAc",Form A
same,Crystal Form,"[2]; solvent DMA, antisolvent Toluene",Form A
same,Crystal Form,"[2]; solvent DMSO, antisolvent Benzene, *Loss of crystallinity",Form A*
same,Crystal Form,"[2]; solvent NMP, antisolvent IPAc",Form A
same,Crystal Form,"[3]; solid vapor diffusion, 1,4-dioxane, RT",Form A
same,Crystal Form,"[3]; solid vapor diffusion, 2-Methyl THF, RT",Form A
same,Crystal Form,"[3]; solid vapor diffusion, CHCl3, RT",Form A
same,Crystal Form,"[3]; solid vapor diffusion, CPME, 40° C.",Form A
same,Crystal Form,"[3]; solid vapor diffusion, DCM, RT",Form A
same,Crystal Form,"[3]; solid vapor diffusion, Dimethoxyethane, 40° C.",Form A
same,Crystal Form,"[3]; solid vapor diffusion, IPAc, RT",Form A
same,Crystal Form,"[3]; solid vapor diffusion, MEK, RT",Form A
same,Crystal Form,"[3]; solid vapor diffusion, MTBE, RT",Form A
same,Crystal Form,"[3]; solid vapor diffusion, THF, RT",Form A
same,Crystal Form,"[3]; solid vapor diffusion, Toluene, 40° C.",Form A
same,Crystal Form,"[4]; solvent DCM, antisolvent Acetone",Form A
same,Crystal Form,"[4]; solvent DCM, antisolvent MTBE",Form A
same,Crystal Form,"[4]; solvent NMP, antisolvent MTBE",Form A
same,Crystal Form,[5]; Acetone,Form A
same,Crystal Form,[5]; Benzene,Form A
same,Crystal Form,[5]; CHCl3,Form A
same,Crystal Form,[5]; CPME,Form A
same,Crystal Form,[5]; DMA:Benzene 1:9,Form A
same,Crystal Form,[5]; DMA:CHCl3 1:9,Form A
same,Crystal Form,[5]; DMA:EtOH 1:9,Form A
same,Crystal Form,[5]; DMF:EtOAc 1:9,Form A
same,Crystal Form,[5]; DMSO (SL→Gel),Amorphous
same,Crystal Form,[5]; DMSO:IPAc 1:9,Form A
same,Crystal Form,[5]; Diethylamine:EtOH 3:7,FB-2
same,Crystal Form,[5]; IPA,Form A
same,Crystal Form,[5]; MIBK,Form A
same,Crystal Form,[5]; MeOH:MeCN 9:1,Form A
same,Crystal Form,[5]; NMP:IPA 1:9,Form A
same,Crystal Form,[5]; THF:H2O (aw = 0.2),Form A
same,Crystal Form,[5]; THF:H2O (aw = 0.4),Form A
same,Crystal Form,[5]; THF:H2O (aw = 0.6),Form A
same,Crystal Form,[5]; THF:H2O (aw = 0.8),Form A
same,Crystal Form,[5]; Toluene,Form A
same,Crystal Form,[6],FB-2
same,Crystal Form,"[7]; polymer Brij, NMP:H2O 1:9, 40° C.",Amorphous
same,Crystal Form,"[7]; polymer PVC, DMF:DCM 1:9, RT",Form A
same,Crystal Form,"[7]; polymer PVP, DMA:H2O 1:9, 40° C.",Form A
same,Crystal Form,"[7]; polymer PVP, NMP:H2O 1:9, 40° C.",Form A
same,Crystal Form,"[8]; 1,4-dioxane:H2O 9:1",Form A*
same,Crystal Form,[8]; 2-MeTHF:DMF 9:1,Form A*
same,Crystal Form,[8]; DMSO:Toluene 1:9,Form A*
same,Crystal Form,[8]; NMP:nPA 1:9,Form A*
same,Crystal Form,"[9]; DMSO:EtOAc 1:9, XRPD after 1 day",Form A
same,Crystal Form,"[9]; THF, XRPD after 1 day",Form A
same,Crystal Form,"[10]; about 30 mg API, 1,4-Dioxane",Form A
same,Crystal Form,"[10]; about 30 mg API, Acetone",Form A
same,Crystal Form,"[10]; about 30 mg API, DCM",Form A
same,Crystal Form,"[10]; about 30 mg API, EtOH",Form A
same,Crystal Form,"[10]; about 30 mg API, THF",Form A
